In US20110104256A1, “METHODS FOR TREATING OR PREVENTING COLORECTAL CANCER” (priority 2008, published 2011):
Marks after values point to notes of the source that are not given here.

Tested on: WiDr human colorectal adenocarcinoma cells
Experiment: Inhibition of colorectal tumor growth in WiDr xenograft model
Type: in vivo, nude mouse (nu/nu)
Details: for % Growth Inhibition: WiDr xenograft, nude mice
From the text: In these experiments, 5 million WiDr human colorectal adenocarcinoma cells, mixed 1:1 with Matrigel, were inoculated subcutaneously to the flank of each nude mouse (nu/nu).

[1] = Day 10 post inoculation, 0.5 mg anti-IGF1R IP 2x/week, 40 mpk Sunitinib PO QD (Table 6)
[2] = Day 14 post inoculation, 0.5 mg anti-IGF1R IP 2x/week, 40 mpk Sunitinib PO QD (Table 6)
[3] = Day 17 post inoculation, 0.5 mg anti-IGF1R IP 2x/week, 40 mpk Sunitinib PO QD (Table 6)
[4] = Day 21 post inoculation, 0.5 mg anti-IGF1R IP 2x/week, 40 mpk Sunitinib PO QD (Table 6)
[5] = Day 24 post inoculation, 0.5 mg anti-IGF1R IP 2x/week, 40 mpk Sunitinib PO QD (Table 6)
[6] = Day 28 post inoculation, 0.5 mg anti-IGF1R IP 2x/week, 40 mpk Sunitinib PO QD (Table 6)
[7] = Day 35 post inoculation, 0.5 mg anti-IGF1R IP 2x/week, 40 mpk Sunitinib PO QD (Table 6)
[8] = 0.5 mg anti-IGF1R IP 2x/week, 40 mpk Sunitinib PO QD (Table 5)

| Compound | Mean tumor volume [1] [mm^3] | Mean tumor volume (Day 10 post inoculation, 0.5 mg anti-IGF1R, 10 mpk Leucovorin/60 mpk 5-FU, IP 2x/week (Table 3)) [mm^3] | Mean tumor volume [2] [mm^3] | Mean tumor volume (Day 14 post inoculation, 0.5 mg anti-IGF1R, 10 mpk Leucovorin/60 mpk 5-FU, IP 2x/week (Table 3)) [mm^3] | Mean tumor volume [3] [mm^3] | Mean tumor volume (Day 17 post inoculation, 0.5 mg anti-IGF1R, 10 mpk Leucovorin/60 mpk 5-FU, IP 2x/week (Table 3)) [mm^3] | Mean tumor volume [4] [mm^3] | Mean tumor volume (Day 21 post inoculation, 0.5 mg anti-IGF1R, 10 mpk Leucovorin/60 mpk 5-FU, IP 2x/week (Table 3)) [mm^3] | Mean tumor volume [5] [mm^3] | Mean tumor volume (Day 24 post inoculation, 0.5 mg anti-IGF1R, 10 mpk Leucovorin/60 mpk 5-FU, IP 2x/week (Table 3)) [mm^3] | Mean tumor volume [6] [mm^3] | Mean tumor volume (Day 28 post inoculation, 0.5 mg anti-IGF1R, 10 mpk Leucovorin/60 mpk 5-FU, IP 2x/week (Table 3)) [mm^3] | Mean tumor volume (Day 31 post inoculation, 0.5 mg anti-IGF1R IP 2x/week, 40 mpk Sunitinib PO QD (Table 6)) [mm^3] | Mean tumor volume (Day 31 post inoculation, 0.5 mg anti-IGF1R, 10 mpk Leucovorin/60 mpk 5-FU, IP 2x/week (Table 3)) [mm^3] | Mean tumor volume [7] [mm^3] | Mean tumor volume (Day 35 post inoculation, 0.5 mg anti-IGF1R, 10 mpk Leucovorin/60 mpk 5-FU, IP 2x/week (Table 3)) [mm^3] | % Growth Inhibition [8] | % Growth Inhibition (0.5 mg anti-IGF1R IP 2x/week, 60 mpk 5-FU/10 mpk Leucovorin IP 2x/week (Table 2)) [%] |
| --- | --- | --- | --- | --- | --- | --- | --- | --- | --- | --- | --- | --- | --- | --- | --- | --- | --- | --- |
| anti-IGF1R: anti-IGF1R antibody with 15H12/19D12 immunoglobulin light chain-F (LCF, κ) and heavy chain-A (HCA, γ1) | 93.1 | 93.1 | 148.0 | 148.0 | 192.0 | 192.0 | 254.1 | 254.1 | 317.0 | 317.0 | 403.1 | 403.1 | 474.5 | 474.5 | 577.6 | 577.6 | 30% | 30 |
| CCN(CC)CCNC(=O)c1c(C)[nH]c(/C=C2\C(=O)Nc3ccc(F)cc32)c1C [Sunitinib, sunitinib, reference compound] | 95.8 | – | 125.4 | – | 143.1 | – | 175.6 | – | 194.8 | – | 205.9 | – | – | – | 238.6 | – | 79^a % | – |
